Source: US11716994B2, “Combinations of Yersinia entomophaga and pesticides or other substances” (priority 2017, dated 2023)
“And” between values parts separate entries of the source, which are not always exact repeats. Identical values can stand only once. Like-named read-outs stand apart in the source and are kept apart here.

Columns and labels:
fall armyworm [1] = conditions: fipronil 12 mg/L
Description: To produce cell free filtrates, cultures of Yersinia entomophaga grown in LB medium were centrifuged at 11,448 (g) for 10 minutes. The supernatant was decanted from the centrifuged pellet and filtered through a 0.22 μm filter. Assays were performed to determine concentrations of Yen-TC (toxin complex) using ELISA, and chitinase by measuring chitinase activity on specific substrates. […] This was done to estimate relative potency of the cell free filtrates. Insects were first pre-screened with a range of dilutions of cell free filtrates to select a concentration that provided moderate activity. […] Based on these initial screens, undiluted cell free filtrate was used for cabbage looper, fall armyworm, black cutworm, and Colorado potato beetle.
Cabbage leaf disks were dipped in either acetone (controls and Y. entomophaga alone treatments) or fipronil (Sigma 46451) at 12 mg/L in acetone. These were set to dry for 1 hr. […] After the cabbage disks had dried for 1 hr, a single 3rd instar fall armyworm was added to each individual cabbage disk. A total of 20 insects were evaluated for each treatment. Insects were observed daily and scored as live or dead.
Cabbage leaf disks were dipped in either acetone (controls and Y. entomophaga alone treatments) or esfenvalerate (Sigma 46277) at 56 mg/L in acetone. These were set to dry for 1 hr. […] After the cabbage disks had dried for 1 hr, a single 3rd instar fall armyworm was added to each individual cabbage disk. A total of 20 insects were evaluate for each treatment. Insects were observed daily and scored as live or dead.

fall armyworm [2] = test: Leaf disk mortality assay, Y. entomophaga cells with chemical insecticides; conditions: for mortality at 4 µg/mL: Spodoptera frugiperda, foliar; for % Mort. Chem. / LT50 Chem.: fall armyworm
cabbage looper [3] = system: cabbage looper
cabbage looper [4] = test: whole plant or invertebrate; conditions: Trichoplusia ni, foliar
Yersinia entomophaga = test: CFU counts after exposure of Yersinia entomophaga to insecticides; type: cell-based; conditions: 1 hour contact
Excerpt: To test combinations of Yersinia entomophaga and pesticides for their ability to produce a pesticidal effect, or an effect on plant growth or yield, we first put various insecticides in contact with Yersinia to identify insecticides that had minimal toxicity to Yersinia entomophaga. The logic was that, if Yersinia entomophaga is to function well in combination with a chemical insecticide, the chemical insecticide would ideally have low or no effect on the ability of Yersinia entomophaga to survive, grow and/or to function.
To perform this study, we selected amounts of various insecticides based on the percent of the specific insecticide in the insecticide composition obtained from a manufacturer. We also considered the application rate of the particular insecticide, as recommended by the manufacturer. […] Generally, the 1× amount was considered possibly the lowest amount of insecticide that may be considered as an effective amount for use in the combinations disclosed herein. For each insecticide, we also used a higher amount of insecticide (generally a 5× or 10× amount).
The 1× and 5×/10× amounts of each insecticide were added to tubes along with 1 ml of ethyl acetate. The tubes were mixed until the insecticides dissolved. The tubes were left open in a fume hood overnight to allow the ethyl acetate to evaporate. The insecticide remained in the tubes, as a solid coat on the interior surface of the tubes.
A growing culture of Yersinia entomophaga, grown in LB medium, was diluted and 1 ml of the diluted culture was added to each tube containing the dried insecticide. The tubes were mixed and then left on the bench top for 1 hour. Then, 100 μl from each tube was plated onto LB plates in triplicate in CFU assays. Plates were incubated at 25° C. for 48 hours and colonies were counted.

black cutworm [5] = test: Leaf disk mortality assay, Y. entomophaga cells with chemical insecticides
cabbage looper [6] = conditions: for LT50 Chem. / % Mort. Chem.: Cabbage Looper
Description: (§2) To produce cell free filtrates, cultures of Yersinia entomophaga grown in LB medium were centrifuged at 11,448 (g) for 10 minutes. The supernatant was decanted from the centrifuged pellet and filtered through a 0.22 μm filter. Assays were performed to determine concentrations of Yen-TC (toxin complex) using ELISA, and chitinase by measuring chitinase activity on specific substrates. […] This was done to estimate relative potency of the cell free filtrates. Insects were first pre-screened with a range of dilutions of cell free filtrates to select a concentration that provided moderate activity. […] Based on these initial screens, undiluted cell free filtrate was used for cabbage looper, fall armyworm, black cutworm, and Colorado potato beetle. […] In each of the Examples below, this is expressed as 1%.
Cabbage leaf disks were dipped in either acetone (controls and Y. entomophaga alone treatments) or novaluron (Sigma 32419) at 1.0 mg/L in acetone. These were set to dry for 1 hr. […] After the cabbage disks had dried for 1 hr, a single 3rd instar cabbage looper was added to each individual cabbage disk. A total of 20 insects were evaluate for each treatment. Insects were observed daily and scored as live or dead.

diamondback moth = test: whole plant or invertebrate; conditions: indoxacarb […]
Excerpt: (§1) These were set to dry for 1 hr.
as §1
These were set to dry for 1 hr. Cabbage disks were then dipped in either 1% Luria broth (LB) media solution (controls and thiacloprid alone treatments) or in 1% cell free filtrate from a culture Y. entomophaga isolate O24G3R (Y. entomophaga alone or in combination with thiacloprid treatments).

black cutworm [7] = conditions: indoxacarb 0.53 mg/L
Description: as §2
Cabbage leaf disks were dipped in either acetone (controls and Y. entomophaga alone treatments) or in indoxacarb (Sigma 33969) at 0.53 mg/L in acetone. These were set to dry for 1 hr. […] After the cabbage disks had dried for 1 hr, a single 2nd instar black cutworm was added to each individual cabbage disk. A total of 20 insects were evaluate for each treatment. Insects were observed daily and scored as live or dead.
Cabbage leaf disks were dipped in either acetone (controls and Y. entomophaga alone treatments) or in flubendiamide (Sigma 32801) at 0.59 mg/L in acetone. These were set to dry for 1 hr. […] After the cabbage disks had dried for 1 hr, a single 2nd instar black cutworm was added to each individual cabbage disk. A total of 20 insects were evaluate for each treatment. Insects were observed daily and scored as live or dead.

[8] = 3rd instar, indoxacarb 0.53 mg/L, isolate O43NEW 1×10^4 cfu/mL
[9] = 3rd instar, indoxacarb 0.53 mg/L, isolate O43NEW 1×10^6 cfu/mL

In the case of N#Cc1nn(-c2c(Cl)cc(C(F)(F)F)cc2Cl)c(N)c1[S+]([O-])C(F)(F)F (centres unmarked) [Fipronil], the “LT50 (95% confidence intervals) in days” value (fall armyworm [1]; 3rd instar fall armyworm, O43NEW undiluted filtrate, alone or combined) is reported as 51.74 (34.99-79.58) days, the “LT50 Chem.” value (fall armyworm [1]; Fall armyworm) is reported as 51.74 days and the “% Mort. Chem.” value (fall armyworm [1]; Fall armyworm, 8 DAT) is reported as 0%. For the same compound, the “LT50 (95% confidence intervals) in days” value (fall armyworm [2]; 3rd instar, fipronil 4 mg/L, isolate O24G3R 1×10^5 cfu/mL) was 6.71 (6.15-7.32) days, the “LT50 (95% confidence intervals) in days” value (fall armyworm [2]; 3rd instar, fipronil 4 mg/L, isolate O24KEK 1×10^5 cfu/mL) was 6.71 (6.15-7.31) days and the “LT50 (95% confidence intervals)” value (fall armyworm [2]; 3rd instar, fipronil 4 mg/L, isolate O43NEW 1×10^5 cfu/mL) was 8.86 days. For the same compound, the “LT50 (95% confidence intervals) in days” value (fall armyworm [2]; 3rd instar, fipronil 4 mg/L, isolate O333A4 1×10^5 cfu/mL) was 6.71 (6.15-7.31) days, the mortality at 4 µg/mL (fall armyworm [2]; 96 h, read-out: % Mortality (4DAT), 3rd instar, fipronil 4 mg/L, isolate O24G3R 1×10^5 cfu/mL) was 5% and the mortality at 4 µg/mL (fall armyworm [2]; 96 h, read-out: % Mortality (4DAT), 3rd instar, fipronil 4 mg/L, isolate O24KEK 1×10^5 cfu/mL) was 5%. For the same compound, the mortality at 4 µg/mL (fall armyworm [2]; 96 h, read-out: % Mortality (4DAT), 3rd instar, fipronil 4 mg/L, isolate O333A4 1×10^5 cfu/mL) was 5%, the mortality at 4 µg/mL (fall armyworm [2]; 120 h, read-out: % Mortality (5DAT), 3rd instar, fipronil 4 mg/L, isolate O24G3R 1×10^5 cfu/mL) was 21% and the mortality at 4 µg/mL (fall armyworm [2]; 120 h, read-out: % Mortality (5DAT), 3rd instar, fipronil 4 mg/L, isolate O24KEK 1×10^5 cfu/mL) was 21%. The mortality at 4 µg/mL (fall armyworm [2]; 120 h, read-out: % Mortality (5DAT), 3rd instar, fipronil 4 mg/L, isolate O43NEW 1×10^5 cfu/mL) was 5%, the mortality at 4 µg/mL (fall armyworm [2]; 120 h, read-out: % Mortality (5DAT), 3rd instar, fipronil 4 mg/L, isolate O333A4 1×10^5 cfu/mL) was 21% and the mortality at 4 µg/mL (fall armyworm [2]; 144 h, read-out: % Mortality (6DAT), 3rd instar, fipronil 4 mg/L, isolate O24KEK 1×10^5 cfu/mL) was 39%. For the same compound, the mortality at 4 µg/mL (fall armyworm [2]; 144 h, read-out: % Mortality (6DAT), 3rd instar, fipronil 4 mg/L, isolate O43NEW 1×10^5 cfu/mL) was 20%, the mortality at 4 µg/mL (fall armyworm [2]; 144 h, read-out: % Mortality (6DAT), 3rd instar, fipronil 4 mg/L, isolate O333A4 1×10^5 cfu/mL) was 39% and the “% Mort. Chem.” value (fall armyworm [2]; Fipronil 4 mg/L, 4 DAT (row with O24KEK)) was 5%. The “% Mort. Chem.” value (fall armyworm [2]; Fipronil 4 mg/L, 4 DAT (row with O333A4)) was 5%, the “% Mort. Chem.” value (fall armyworm [2]; Fipronil 4 mg/L, 5 DAT (row with O24G3R)) was 21% and the “% Mort. Chem.” value (fall armyworm [2]; Fipronil 4 mg/L, 5 DAT (row with O43NEW)) was 5%. For the same compound, the “LT50 Chem.” value (fall armyworm [2]; Fipronil alone 4 mg/L) was 8.86 days and 6.71 days.
CNC(=O)ON=C(C)SC [Methomyl] was tested, and the “LT50 Chem.” value (cabbage looper [3]; cabbage looper, Methomyl alone 30 mg/L) was 5.84 days, the “% Mort. Chem.” value (cabbage looper [3]; in vivo) was 12% and the “LT50 (95% confidence intervals) in days” value (cabbage looper [3]; in vivo) was 5.84 (4.99-6.88) days. For the same compound, the mortality at 30 µg/mL (cabbage looper [4]; 24 h, read-out: % Mortality (1DAT)) was 4%, the mortality at 30 µg/mL (cabbage looper [4]; 48 h, read-out: % Mortality (2DAT)) was 12% and the “Average CFU” value (Yersinia entomophaga; 0.3 mg insecticide) was 192 CFU. For the same compound, the “Average CFU” value (Yersinia entomophaga; 3.4 mg insecticide) was 0 CFU.
For O=C(NC(=O)c1c(F)cccc1F)Nc1ccc(OC(F)(F)C(F)OC(F)(F)F)c(Cl)c1 (centres unmarked) [Novaluron], the “LT50 (95% confidence intervals) in days” value (black cutworm [5]; 3rd instar, novaluron […], isolate O43NEW 1×10^4 cfu/mL) was 9.40 (8.58-10.32) days, the “LT50 Chem.” value (black cutworm [5]; black cutworm, Novaluron alone […]) was 9.40 days and the “LT50 Chem.” value (cabbage looper [6]; novaluron 1 mg/L) was 7.31 days. For the same compound, the “% Mort. Chem.” value (cabbage looper [6]; novaluron 1 mg/L, 6 DAT) was 0%, the “% Mort. Chem.” value (cabbage looper [3]; cabbage looper, Novaluron 1 mg/L, 5 DAT) was 11% and the “LT50 Chem.” value (cabbage looper [3]; cabbage looper, Novaluron alone 1 mg/L) was 7.55 days. For the same compound, the “LT50 (95% confidence intervals) in days” value (cabbage looper [3]; in vivo) was 7.55 (7.01-8.13) days, the mortality at 1 µg/mL (cabbage looper [4]; 120 h, read-out: % Mortality (5DAT)) was 11% and the mortality at 1 µg/mL (cabbage looper [4]; 144 h, read-out: % Mortality (6DAT)) was 21%. For the same compound, the “Average CFU” value (Yersinia entomophaga; 0.1 mg insecticide) was 528 CFU and the “Average CFU” value (Yersinia entomophaga; 1.0 mg insecticide) was 452 CFU.
CNC(=O)Oc1cccc2ccccc12 [Carbaryl] was tested, and the “% Mort. Chem.” value (cabbage looper [3]; cabbage looper, Carbaryl 100 mg/L, 2 DAT) was 21%, the “LT50 Chem.” value (cabbage looper [3]; cabbage looper, Carbaryl alone 100 mg/L) was 3.60 days and the “% Mortality (1DAT)” value (cabbage looper [3]; in vivo) was 4%. The “% Mortality (2DAT)” value (cabbage looper [3]; in vivo) was 21%, the “LT50 (95% confidence intervals) in days” value (cabbage looper [3]; in vivo) was 3.60 (3.12-4.17) days and the “% Mortality (4DAT)” value (tobacco budworm; in vivo) was 50%. The “% Mortality (5DAT)” value (tobacco budworm; in vivo) was 65%, the “LT50 (95% confidence intervals) in days” value (tobacco budworm; in vivo) was 4.06 (3.65-4.52) days and the “% Mort. Chem.” value (tobacco budworm; tobacco budworm, Carbaryl 100 mg/L, 4 DAT) was 50%. For the same compound, the “LT50 Chem.” value (tobacco budworm; tobacco budworm, Carbaryl alone 100 mg/L) was 4.06 days, the “Average CFU” value (Yersinia entomophaga; 1.0 mg insecticide) was 456 CFU and the “Average CFU” value (Yersinia entomophaga; 9.6 mg insecticide) was 459 CFU.
In the case of COC(=O)N(C(=O)N1CO[C@@]2(C(=O)OC)Cc3cc(Cl)ccc3C2=N1)c1ccc(OC(F)(F)F)cc1 [Indoxacarb], the “LT50 (95% confidence intervals)” value (diamondback moth; 2nd instar diamondback moth, O43NEW filtrate 1%, alone or combined) is reported as 3.47 days, the “LT50 Chem.” value (diamondback moth; Diamondback moth) is reported as 3.47 days and the “% Mortality (3DAT)” value (black cutworm [5]; [8]) is reported as 11%. The “% Mortality (4DAT)” value (black cutworm [5]; [8]) was 6%, the “% Mortality (5DAT)” value (black cutworm [5]; [8]) was 0% and the “% Mortality (6DAT)” value (black cutworm [5]; [8]) was 6%. For the same compound, the “LT50 (95% confidence intervals) in days” value (black cutworm [5]; [8]) was 7.64 (7.01-8.32) days, the “% Mort. Chem.” value (black cutworm [5]; black cutworm, Indoxacarb 0.53 mg/L, 5 DAT) was 0% and the “LT50 Chem.” value (black cutworm [5]; black cutworm, Indoxacarb alone 0.53 mg/L) was 7.64 days. The “LT50 Chem.” value (cabbage looper [6]; indoxacarb 0.53 mg/L) was 11.98 days, the “% Mort. Chem.” value (cabbage looper [6]; indoxacarb 0.53 mg/L, 9 DAT) was 25% and the “% Mortality (2DAT)” value (cabbage looper [6]; cabbage looper, indoxacarb 0.53 mg/L, undiluted O43NEW filtrate, 2 DAT, Abbott's corrected) was 0%. The “% Mortality (6DAT)” value (cabbage looper [6]; cabbage looper, indoxacarb 0.53 mg/L, undiluted O43NEW filtrate, 6 DAT, Abbott's corrected) was 15%, the “% Mortality (7DAT)” value (cabbage looper [6]; cabbage looper, indoxacarb 0.53 mg/L, undiluted O43NEW filtrate, 7 DAT, Abbott's corrected) was 15% and the “% Mortality (8DAT)” value (cabbage looper [6]; cabbage looper, indoxacarb 0.53 mg/L, undiluted O43NEW filtrate, 8 DAT, Abbott's corrected) was 25%. The “% Mortality (9DAT)” value (cabbage looper [6]; cabbage looper, indoxacarb 0.53 mg/L, undiluted O43NEW filtrate, 9 DAT, Abbott's corrected) was 25%, the “% Mortality (12DAT)” value (cabbage looper [6]; cabbage looper, indoxacarb 0.53 mg/L, undiluted O43NEW filtrate, 12 DAT, Abbott's corrected) was 61% and the “% Mortality (14DAT)” value (cabbage looper [6]; cabbage looper, indoxacarb 0.53 mg/L, undiluted O43NEW filtrate, 14 DAT, Abbott's corrected) was 59%. The “% Mortality (5DAT)” value (fall armyworm [2]; [9]) was 5%, the “% Mortality (6DAT)” value (fall armyworm [2]; [9]) was 10% and the “LT50 (95% confidence intervals)” value (fall armyworm [2]; [9]) was 9.65 days. The “LT50 (95% confidence intervals) in days” value (fall armyworm [2]; 3rd instar, indoxacarb […], isolate O23ZMJ 1×10^5 cfu/mL) was 5.14 (4.67-5.66) days, the “% Mort. Chem.” value (fall armyworm [2]; Indoxacarb 0.53 mg/L, 6 DAT) was 10% and the “LT50 Chem.” value (fall armyworm [2]; Indoxacarb alone 0.53 mg/L) was 9.65 days. The “LT50 Chem.” value (fall armyworm [2]; Indoxacarb alone […]) was 5.14 days, the “Average CFU” value (Yersinia entomophaga; 0.2 mg insecticide) was 452 CFU and the “Average CFU” value (Yersinia entomophaga; 1.1 mg insecticide) was 477 CFU. The “LT50 (95% confidence intervals) in days” value (black cutworm [7]; 2nd instar black cutworm, O43NEW undiluted filtrate, alone or combined) was 10.99 (9.75-12.42) days, the “% Mortality (2DAT)” value (black cutworm [7]; 2nd instar black cutworm, O43NEW undiluted filtrate, alone or combined, 2 DAT, Abbott's corrected) was 0% and the “% Mortality (6DAT)” value (black cutworm [7]; 2nd instar black cutworm, O43NEW undiluted filtrate, alone or combined, 6 DAT, Abbott's corrected) was 0%. The “% Mortality (8DAT)” value (black cutworm [7]; 2nd instar black cutworm, O43NEW undiluted filtrate, alone or combined, 8 DAT, Abbott's corrected) was 11%, the “% Mortality (9DAT)” value (black cutworm [7]; 2nd instar black cutworm, O43NEW undiluted filtrate, alone or combined, 9 DAT, Abbott's corrected) was 21% and the “LT50 Chem.” value (black cutworm [7]; Black cutworm) was 10.99 days. The “% Mort. Chem.” value (black cutworm [7]; Black cutworm, 9 DAT) was 21%.
